Measured values taken from US20260166046A1, “Inhibitors of methionine aminopeptidase-2 and methods of preparation and uses thereof” (Primetime Life Sciences LLC, priority 2022, published 2026).
Read-outs that look alike come from different tables or passages of the source.

Key:
Recombinant human MetAP2 = target: T1, Recombinant human MetAP2 (Homo sapiens, UniProt P50579); assay: MetAP2 fluorescence assay; format: biochemical; settings: recombinant human MetAP2, H-Met-Gly-Pro-AMC substrate
T1 construct: purchased Bio-Techne/R&D systems
Experimental: MetAP2 Fluorescence Assay
Recombinant human MetAP2 (Bio-Techne/R&D systems) was diluted to 10 μg/mL in the assay buffer (50 mM HEPES, 0.1 mM CoCl2, 100 mM NaCl, pH 7.5). The substrate, H-Met-Gly-Pro-AMC (Bio-Techne/R&D systems), was diluted to 500 μM with 2 μg/mL of the coupling enzyme, recombinant human dipeptidyl peptidase-4 (Bio-Techne/R&D systems), in assay buffer. 50 μL of 10 μg/mL recombinant human METAP2 were loaded into a flat-bottom black 96-well plate (Greiner Bio), and the reaction was initiated by adding 50 μL of the substrate/dipeptidyl peptidase-4 mixture. The reaction mixture was incubated at room temperature for 10 minutes, and the fluorescence was measured for 5 minutes at excitation and emission wavelengths of 380 nm and 460 nm, respectively, in kinetic mode. For IC50determination, 0.5 μL inhibitor solution was added to the reaction mixture. The reaction rates were used to calculate IC50with KaleidaGraph.

G. lamblia GS = assay: Trophozoite viability IC50 determination, Giardia assay (ATPLite); format: cell-based; settings: Giardia duodenalis, read-out: Cell viability values Mean IC50 (nM) G. lamblia GS
Experimental: (§1) Giardia cultures: Trophozoites of G. lamblia isolates WB and GS were grown anaerobically in borosilicate glass screw-cap culture tubes (Fisher Scientific) at pH 7.0 in modified TYI-S-33 medium. The medium was supplemented with 10% heat-inactivated bovine serum (Sigma-Aldrich) and 0.05% bovine bile (Sigma-Aldrich). To attain low-oxygen-tension conditions, the tubes were filled to 85 to 90% of their total volume capacity and incubated without shaking at 37° C. Subcultures (2×10^5 trophozoites per tube) were made three times a week. Detachment of trophozoites for inoculation was achieved by chilling the cultures on ice for 20 min. Culturing and detachment of Metronidazole-resistant G. lamblia Assemblage A 713M3 and assemblage B 1279-M1 trophozoites followed the same protocol, except that the growth medium was supplemented with metronidazole gradually increasing the concentration to 10 μM. Amebae cultures: E. histolytica strain HM1:IMSS trophozoites were grown at 37° C. in TYI-S-33 medium supplemented with penicillin (100 U/mL) and streptomycin sulfate (100 μg/mL). Trophozoites were grown anaerobically in borosilicate tubes and subcultures were made 1-2 times a week. Trophozoites were detached for inoculation by chilling the cultures on ice for 20 minutes.
(§2) Trophozoite viability IC50determination
(§3) Giardia assays: 10 μL giardia trophozoites in growth medium were plated at a density of 10,000 cells/well in sterile 96-well black clear bottom assay plates. Fumagillin and fumagillol derivatives were 1:3 serially diluted from a 1 μM DMSO stock solution and then 100 μL/well were transferred in duplicate to the assay wells. Metronidazole (control) was 1:3 serially diluted in growth medium from a 100 μM stock solution in DMSO. The assay plates were placed in a BD GasPak™ EZ Container System (BD Diagnostics) to create an anaerobic growth environment. The sealed containers were incubated at 37° C. for 72 hr. Following incubation, 70 μL/well of the ATPLite reagent (PerkinElmer) was added to the assay plates for one-step lysis and ATP level detection. The luminescent signals of the assay plates were measured on an EnSpire 2300 plate reader (PerkinElmer). Concentration response titration points for each compound were fitted to a 4-parameters logistic nonlinear regression model using KaleidaGraph, yielding the IC50value and standard error (SE).

G. lamblia WB = assay: as above; format: cell-based; settings: Giardia duodenalis, read-out: Cell viability values Mean IC50 (nM) G. lamblia WB
Experimental: as §1, §2, §3

E. histolytica HM1: IMSS = assay: Trophozoite viability IC50 determination, Amebae assay (ATPLite); format: cell-based; settings: Entamoeba histolytica, read-out: Cell viability values Mean IC50 (nM) E. histolytica HM1: IMSS
Experimental: as §1, §2, §3
Amebae assays: The protocol is identical to that described above except that the trophozoites were plated at a density of 5000 cells/well because of their larger size.

[1] = trophozoites, 72 hr, anaerobic, ATP level

T1 sequence (P50579 whole entry): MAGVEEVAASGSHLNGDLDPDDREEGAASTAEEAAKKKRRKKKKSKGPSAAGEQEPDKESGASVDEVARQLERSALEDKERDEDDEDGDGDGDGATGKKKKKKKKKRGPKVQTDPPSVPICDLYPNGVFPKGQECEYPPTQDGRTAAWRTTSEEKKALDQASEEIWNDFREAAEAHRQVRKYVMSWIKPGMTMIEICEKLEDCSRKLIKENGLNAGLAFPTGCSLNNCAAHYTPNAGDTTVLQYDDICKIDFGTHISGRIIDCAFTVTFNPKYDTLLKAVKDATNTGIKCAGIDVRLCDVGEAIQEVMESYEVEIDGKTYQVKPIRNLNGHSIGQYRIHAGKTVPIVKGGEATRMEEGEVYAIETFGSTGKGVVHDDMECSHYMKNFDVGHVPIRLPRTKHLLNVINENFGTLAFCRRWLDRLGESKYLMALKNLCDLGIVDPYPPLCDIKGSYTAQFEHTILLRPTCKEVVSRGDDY

SMILES	IC50 (Recombinant human MetAP2)	IC50 (G. lamblia GS; 72 h)	IC50 (G. lamblia WB; 72 h)	IC50 (E. histolytica HM1: IMSS; 72 h)	IC50 (G. lamblia GS; [1])	IC50 (G. lamblia WB; [1])	IC50 (E. histolytica HM1: IMSS; [1])
CO[C@@H]1[C@H](OC(=O)Nc2cc(C#N)cc(B(O)O)c2)CC[C@]2(CO2)[C@H]1[C@@]1(C)O[C@@H]1CC=C(C)C [No 25]	< 10 nM	101 to 1000 nM	101 to 1000 nM	> 1000 nM	–	–	–
CO[C@@H]1[C@H](OC(=O)Nc2cc(C)cc(B(O)O)c2)CC[C@]2(CO2)[C@H]1[C@@]1(C)O[C@@H]1CC=C(C)C [No 28]	< 10 nM	10.1 to 100 nM	101 to 1000 nM	101 to 1000 nM	–	–	–
CO[C@@H]1[C@H](OC(=O)NCc2cccc(B(O)O)c2)CC[C@]2(CO2)[C@H]1[C@@]1(C)O[C@@H]1CC=C(C)C [No 29]	< 10 nM	101 to 1000 nM	101 to 1000 nM	101 to 1000 nM	–	–	–
CO[C@@H]1[C@H](OC(=O)NCc2ccc(B(O)O)cc2)CC[C@]2(CO2)[C@H]1[C@@]1(C)O[C@@H]1CC=C(C)C [No 30]	< 10 nM	101 to 1000 nM	101 to 1000 nM	101 to 1000 nM	–	–	–
CO[C@@H]1[C@H](OC(=O)NCc2cc(F)ccc2B(O)O)CC[C@]2(CO2)[C@H]1[C@@]1(C)O[C@@H]1CC=C(C)C [No 31]	< 10 nM	101 to 1000 nM	101 to 1000 nM	> 1000 nM	–	–	–
CO[C@@H]1[C@H](OC(=O)Nc2cc(B(O)O)cc([N+](=O)[O-])c2)CC[C@]2(CO2)[C@H]1[C@@]1(C)O[C@@H]1CC=C(C)C [No 33]	< 10 nM	101 to 1000 nM	> 1000 nM	> 1000 nM	–	–	–
CO[C@@H]1[C@H](OC(=O)Nc2ccc(F)c(F)c2B(O)O)CC[C@]2(CO2)[C@H]1[C@@]1(C)O[C@@H]1CC=C(C)C [No 34]	< 10 nM	–	–	–	101 to 1000 nM	> 1000 nM	> 1000 nM
CO[C@@H]1[C@H](OC(=O)Nc2c(F)cccc2B(O)O)CC[C@]2(CO2)[C@H]1[C@@]1(C)O[C@@H]1CC=C(C)C [No 35]	< 10 nM	–	–	–	101 to 1000 nM	> 1000 nM	> 1000 nM
CO[C@@H]1[C@H](OC(=O)Nc2ccncc2B(O)O)CC[C@]2(CO2)[C@H]1[C@@]1(C)O[C@@H]1CC=C(C)C [No 37]	< 10 nM	10.1 to 100 nM	> 1000 nM	> 1000 nM	–	–	–
CO[C@@H]1[C@H](OC(=O)Nc2ccc3sc(B(O)O)cc3c2)CC[C@]2(CO2)[C@H]1[C@@]1(C)O[C@@H]1CC=C(C)C [No 38]	< 10 nM	> 1000 nM	> 1000 nM	> 1000 nM	–	–	–
CO[C@@H]1[C@H](OC(=O)Nc2csc(B(O)O)c2)CC[C@]2(CO2)[C@H]1[C@@]1(C)O[C@@H]1CC=C(C)C [No 40]	< 10 nM	101 to 1000 nM	> 1000 nM	> 1000 nM	–	–	–
CO[C@@H]1[C@H](OC(=O)N2CCc3cc(B(O)O)cnc3C2)CC[C@]2(CO2)[C@H]1[C@@]1(C)O[C@@H]1CC=C(C)C [No 41]	< 10 nM	10.1 to 100 nM	101 to 1000 nM	> 1000 nM	–	–	–
CO[C@@H]1[C@H](OC(=O)NCc2c(F)cc(B(O)O)cc2F)CC[C@]2(CO2)[C@H]1[C@@]1(C)O[C@@H]1CC=C(C)C [No 43]	< 10 nM	101 to 1000 nM	> 1000 nM	> 1000 nM	–	–	–
CO[C@@H]1[C@H](OC(=O)N2CCc3cc(B(O)O)ccc3C2)CC[C@]2(CO2)[C@H]1[C@@]1(C)O[C@@H]1CC=C(C)C [No 44]	< 10 nM	10.1 to 100 nM	> 1000 nM	> 1000 nM	–	–	–
CO[C@@H]1[C@H](OC(=O)Nc2cccc(B(O)O)c2Cl)CC[C@]2(CO2)[C@H]1[C@@]1(C)O[C@@H]1CC=C(C)C [No 45]	< 10 nM	101 to 1000 nM	> 1000 nM	> 1000 nM	–	–	–
CO[C@@H]1[C@H](OC(=O)Nc2c(B(O)O)ccnc2Cl)CC[C@]2(CO2)[C@H]1[C@@]1(C)O[C@@H]1CC=C(C)C [No 47]	< 10 nM	101 to 1000 nM	> 1000 nM	> 1000 nM	–	–	–
CO[C@@H]1[C@H](OC(=O)NC(CF)c2ccc(B(O)O)cc2)CC[C@]2(CO2)[C@H]1[C@@]1(C)O[C@@H]1CC=C(C)C (stereo partly drawn) [No 48]	< 10 nM	101 to 1000 nM	> 1000 nM	> 1000 nM	–	–	–
CO[C@@H]1[C@H](OC(=O)Nc2cc(B(O)O)c3occc3c2)CC[C@]2(CO2)[C@H]1[C@@]1(C)O[C@@H]1CC=C(C)C [No 49]	< 10 nM	10.1 to 100 nM	101 to 1000 nM	> 1000 nM	–	–	–
CO[C@@H]1[C@H](OC(=O)Nc2cc(B(O)O)cc(F)n2)CC[C@]2(CO2)[C@H]1[C@@]1(C)O[C@@H]1CC=C(C)C [No 50]	< 10 nM	10.1 to 100 nM	> 1000 nM	> 1000 nM	–	–	–
CO[C@@H]1[C@H](OC(=O)N2CCOc3c(B(O)O)cccc32)CC[C@]2(CO2)[C@H]1[C@@]1(C)O[C@@H]1CC=C(C)C [No 51]	< 10 nM	< 10 nM	101 to 1000 nM	101 to 1000 nM	–	–	–
CO[C@@H]1[C@H](OC(=O)N2CCC(B(O)O)CC2)CC[C@]2(CO2)[C@H]1[C@@]1(C)O[C@@H]1CC=C(C)C [No 52]	< 10 nM	10.1 to 100 nM	101 to 1000 nM	> 1000 nM	–	–	–
CO[C@@H]1[C@H](OC(=O)N2CC=C(B(O)O)CC2)CC[C@]2(CO2)[C@H]1[C@@]1(C)O[C@@H]1CC=C(C)C [No 53]	< 10 nM	101 to 1000 nM	> 1000 nM	> 1000 nM	–	–	–
CO[C@@H]1[C@H](OC(=O)N(C)c2cc(B(O)O)c3occc3c2)CC[C@]2(CO2)[C@H]1[C@@]1(C)O[C@@H]1CC=C(C)C [No 54]	< 10 nM	101 to 1000 nM	> 1000 nM	> 1000 nM	–	–	–
CO[C@@H]1[C@H](OC(=O)NCc2ccc(B(O)O)o2)CC[C@]2(CO2)[C@H]1[C@@]1(C)O[C@@H]1CC=C(C)C [No 55]	< 10 nM	101 to 1000 nM	> 1000 nM	> 1000 nM	–	–	–
CO[C@@H]1[C@H](OC(=O)N2CCc3cc(B(O)O)ccc32)CC[C@]2(CO2)[C@H]1[C@@]1(C)O[C@@H]1CC=C(C)C [No 58]	< 10 nM	101 to 1000 nM	> 1000 nM	> 1000 nM	–	–	–
CO[C@@H]1[C@H](OC(=O)NCCCB(O)O)CC[C@]2(CO2)[C@H]1[C@@]1(C)O[C@@H]1CC=C(C)C [No 59]	< 10 nM	> 1000 nM	> 1000 nM	> 1000 nM	–	–	–
CO[C@@H]1[C@H](OC(=O)N2CCCC2B(O)O)CC[C@]2(CO2)[C@H]1[C@@]1(C)O[C@@H]1CC=C(C)C (stereo partly drawn) [No 60]	< 10 nM	10.1 to 100 nM	> 1000 nM	> 1000 nM	–	–	–
CO[C@@H]1[C@H](OC(=O)Nc2ccc(B(O)O)c(C(C)C)c2)CC[C@]2(CO2)[C@H]1[C@@]1(C)O[C@@H]1CC=C(C)C [No 62]	< 10 nM	101 to 1000 nM	> 1000 nM	> 1000 nM	–	–	–
CO[C@@H]1[C@H](OC(=O)NCCB(O)O)CC[C@]2(CO2)[C@H]1[C@@]1(C)O[C@@H]1CC=C(C)C [No 63]	< 10 nM	10.1 to 100 nM	101 to 1000 nM	101 to 1000 nM	–	–	–
CO[C@@H]1[C@H](OC(=O)Nc2ccc(Cl)c(B(O)O)c2F)CC[C@]2(CO2)[C@H]1[C@@]1(C)O[C@@H]1CC=C(C)C [No 64]	< 10 nM	–	–	–	101 to 1000 nM	> 1000 nM	> 1000 nM
